{"source": "paper PMC7269503", "about": "(Antimicrobial Agents and Chemotherapy, 2020)", "key": {"[1]": {"test_system": "OPC-167832-resistant isolates of M. tuberculosis H37Rv", "type": "cell-based"}, "[2]": {"settings": "female, ICR, mouse, in vivo, po, 2.5 mg/kg"}}, "data": [{"smiles": "O=C1CCc2c(OC[C@]3(O)CCN(c4c(F)cc(Cl)cc4F)C[C@H]3O)ccc(F)c2N1", "note": "[OPC-167832]", "values": [{"measurement": "MIC against Rv0678 mutants", "setting": "[1]", "result": 1, "unit": "ng/mL"}, {"measurement": "AUCt/12 h/MIC", "setting": "[2]", "result": 95, "unit": "fold"}, {"measurement": "Cmax/MIC", "setting": "[2]", "result": 314, "unit": "fold"}]}]}
